Drawing on ChEMBL document CHEMBL3217473, “Discovery of a structurally novel, drug-like and potent inhibitor of peptidylarginine deiminase” (Medchemcomm, 2013), this text covers inhibition and Activity for two molecules.

Calls of active or inactive are those of the source. The rule behind the calls is not given here.

In series [1] the test system is NSC. Briefly: Inhibition of thapsigargin-induced cell death in human NSC assessed as cell survival at <=1 uM treated 15 mins prior to thapsigargin addition measured after 24 hrs drug treatment by methylene blue assay. The class given is functional, cell-based.
Series [2] deals with NSC. Description: Inhibition of thapsigargin-induced cell death in human NSC assessed as increase in cell survival at >10 uM treated 15 mins prior to thapsigargin addition measured after 24 hrs drug treatment by methylene blue assay. The class given is functional, cell-based.
In series [3] the test system is HEK-293T. Briefly: Inhibition of thapsigargin-induced cell death in human HEK293T cells overexpressing human recombinant PAD3 assessed as increase in cell survival at 100 uM treated 15 mins prior to thapsigargin addition measured after 24 hrs drug treatment by methylene blue assay. The class given is functional, cell-based.
Series [4] has as its system NSC. Description: Inhibition of thapsigargin-induced cell death in human NSC assessed as increase in cell survival up to 1 mM treated 15 mins prior to thapsigargin addition measured after 24 hrs drug treatment by methylene blue assay. In kind it is functional, cell-based.
Series [5] has as its target T1, Protein-arginine deiminase type-3 (Homo sapiens) (UniProt Q9ULW8).
T1 sequence (whole entry): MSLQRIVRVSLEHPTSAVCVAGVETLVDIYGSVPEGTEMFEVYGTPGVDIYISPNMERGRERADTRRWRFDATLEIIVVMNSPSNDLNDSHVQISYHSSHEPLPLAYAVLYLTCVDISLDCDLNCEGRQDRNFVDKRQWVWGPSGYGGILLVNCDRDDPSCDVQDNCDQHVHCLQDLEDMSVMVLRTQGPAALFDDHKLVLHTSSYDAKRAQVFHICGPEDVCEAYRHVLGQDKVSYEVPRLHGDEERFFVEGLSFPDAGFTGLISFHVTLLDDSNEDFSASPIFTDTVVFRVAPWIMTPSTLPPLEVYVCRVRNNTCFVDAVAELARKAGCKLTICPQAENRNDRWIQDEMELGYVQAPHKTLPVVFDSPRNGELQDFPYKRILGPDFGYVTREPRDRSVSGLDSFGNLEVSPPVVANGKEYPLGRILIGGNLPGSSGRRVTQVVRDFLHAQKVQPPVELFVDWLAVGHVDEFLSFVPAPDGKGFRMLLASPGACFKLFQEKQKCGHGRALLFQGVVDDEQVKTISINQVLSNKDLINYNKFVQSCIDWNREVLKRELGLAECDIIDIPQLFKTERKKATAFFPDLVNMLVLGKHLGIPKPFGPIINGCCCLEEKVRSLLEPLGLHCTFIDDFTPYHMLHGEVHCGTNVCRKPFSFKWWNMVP
Description: Competitive reversible inhibition of human recombinant PAD3 expressed in HEK293T cells assessed as rate of citrullination of BAEE at 10 to 100 uM by Michaelis-Menten equation analysis using colorimetry. The class given is cell-based. Particulars: HEK-293T.

Series [6] has as its system HEK-293T. Description: Inhibition of thapsigargin-induced cell death in human HEK293T cells overexpressing human recombinant PAD3 assessed as increase in cell survival at 10 uM treated 15 mins prior to thapsigargin addition measured after 24 hrs drug treatment by methylene blue assay. In kind it is functional, cell-based.
Series [7] addresses T1, Protein-arginine deiminase type-3 (Homo sapiens). Briefly: Inhibition of human recombinant PAD3 expressed in HEK293T cells assessed as conversion of BAEE to sodium benzoyl-L-citrulline at 100 uM by colorimetric analysis. The class given is cell-based. Particulars: HEK-293T.
Series [8] concerns NSC. Briefly: Cytotoxicity against human NSC assessed as decrease in cell survival at 0.1 to 1000 uM after 24 hrs by methylene blue assay. The class given is cell-based.
Series [9] concerns the target T1, Protein-arginine deiminase type-3 (Homo sapiens). Briefly: Inhibition of human recombinant PAD3 expressed in HEK293T cells assessed as conversion of BAEE to sodium benzoyl-L-citrulline up to 1 mM by colorimetric analysis. In kind it is cell-based. Particulars: HEK-293T.
Series [10] concerns NSC. Description: Inhibition of thapsigargin-induced cell death in human NSC assessed as increase in cell survival at 100 nM treated 15 mins prior to thapsigargin addition measured after 24 hrs drug treatment by methylene blue assay. The class given is functional, cell-based.

Take `N=C(CCl)NCCC[C@H](NC(=O)c1ccccc1)C(N)=O`: the inhibition result with NSC [1] was “inactive”. For the same molecule, the inhibition entry in the series with NSC [2] and with HEK-293T [3] was “Active” in each case.
In the case of `O=C1CN=C(NCCc2c[nH]c3ccccc23)N1`, the inhibition result (with NSC [4]; in series [5]; in the series with HEK-293T [6]; in [7]; in series [9]; with NSC [10]) was “Active” in each case. Further, the Activity result in the series on NSC [8] was “Non-toxic”.
